# Experimental data taken from ChEMBL document CHEMBL1201862, “PubChem BioAssay data set” (2004).
#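 Method: 48-hour compound exposure of cells in 96-well plates, five concentrations, linear interpolation of endpoints. GI50: concentration for 50% inhibition of growth.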 Active and inactive are the calls of the source. No stated cut-off is given here; in the data, active = GI50 up to about 1.1 µM and inactive = higher.
# Tests used:
# Experiment in all cases: inhibition of tumour cell growth, NCI panel, 48 h
# 786-0 = system: 786-0
# A498 = system: A498
# A549 = system: A549
# ACHN = system: ACHN
# BT-549 = system: BT-549
# CAKI-1 = system: CAKI-1
# CCRF-CEM = system: CCRF-CEM
# COLO 205 = system: COLO 205
# DU-145 = system: DU-145
# EKVX = system: EKVX
# HCT-116 = system: HCT-116
# HCT-15 = system: HCT-15
# HOP-62 = system: HOP-62
# HOP-92 = system: HOP-92
# HT-29 = system: HT-29
# Hs-578T = system: Hs-578T
# IGROV-1 = system: IGROV-1
# K562 = system: K562
# KM12 = system: KM12
# LOX IMVI = system: LOX IMVI
# M14 = system: M14
# MDA-MB-231 = system: MDA-MB-231
# MDA-MB-435 = system: MDA-MB-435
# MDA-N = system: MDA-N
# MOLT-4 = system: MOLT-4
# Malme-3M = system: Malme-3M
# NCI-H226 = system: NCI-H226
# NCI-H23 = system: NCI-H23
# NCI-H522 = system: NCI-H522
# NCI/ADR-RES = system: NCI/ADR-RES
# OVCAR-3 = system: OVCAR-3
# OVCAR-4 = system: OVCAR-4
# OVCAR-5 = system: OVCAR-5
# OVCAR-8 = system: OVCAR-8
# PC-3 = system: PC-3
# RPMI-8226 = system: RPMI-8226
# RXF 393 = system: RXF 393
# SF-268 = system: SF-268
# SF-295 = system: SF-295
# SK-MEL-28 = system: SK-MEL-28
# SK-MEL-2 = system: SK-MEL-2
# SK-MEL-5 = system: SK-MEL-5
# SK-OV-3 = system: SK-OV-3
# SN12C = system: SN12C
# SNB-19 = system: SNB-19
# SNB-75 = system: SNB-75
# SR = system: SR
# SW-620 = system: SW-620
# T47D = system: T47D
# TK-10 = system: TK-10
# U-251 = system: U-251
# UACC-257 = system: UACC-257
# UACC-62 = system: UACC-62
# UO-31 = system: UO-31
smiles,measurement,setting,value
O=S(=O)(/N=c1/[nH]c2ccccc2n1S(=O)(=O)c1ccccc1)c1ccccc1,GI50,786-0,67 µM (inactive)
same,GI50,A498,80.9 µM (inactive)
same,GI50,A549,42.4 µM (inactive)
same,GI50,ACHN,26.5 µM (inactive)
same,GI50,BT-549,41.2 µM (inactive)
same,GI50,CAKI-1,65.8 µM (inactive)
same,GI50,CCRF-CEM,31.3 µM (inactive)
same,GI50,COLO 205,53.5 µM (inactive)
same,GI50,DU-145,57.7 µM (inactive)
same,GI50,EKVX,65.6 µM (inactive)
same,GI50,HCT-116,46.7 µM (inactive)
same,GI50,HCT-15,36.3 µM
same,GI50,HOP-62,56.5 µM (inactive)
same,GI50,HOP-92,38.5 µM (inactive)
same,GI50,HT-29,44 µM (inactive)
same,GI50,Hs-578T,88.1 µM (inactive)
same,GI50,IGROV-1,48 µM (inactive)
same,GI50,K562,32.7 µM (inactive)
same,GI50,KM12,33.1 µM (inactive)
same,GI50,LOX IMVI,> 100 µM (inactive)
same,GI50,M14,25.2 µM (inactive)
same,GI50,MDA-MB-231,> 100 µM (inactive)
same,GI50,MDA-MB-435,36.8 µM (inactive)
same,GI50,MDA-N,56.2 µM (inactive)
same,GI50,MOLT-4,29.2 µM (inactive)
same,GI50,Malme-3M,37.2 µM (inactive)
same,GI50,NCI-H226,56.2 µM (inactive)
same,GI50,NCI-H23,41.6 µM (inactive)
same,GI50,NCI-H522,50.4 µM (inactive)
same,GI50,NCI/ADR-RES,44.9 µM (inactive)
same,GI50,OVCAR-3,27.9 µM (inactive)
same,GI50,OVCAR-4,46.6 µM (inactive)
same,GI50,OVCAR-5,64.9 µM (inactive)
same,GI50,OVCAR-8,55 µM (inactive)
same,GI50,PC-3,36.8 µM (inactive)
same,GI50,RPMI-8226,35.4 µM (inactive)
same,GI50,RXF 393,56.8 µM (inactive)
same,GI50,SF-268,42.4 µM (inactive)
same,GI50,SF-295,41.1 µM (inactive)
same,GI50,SK-MEL-28,34.4 µM (inactive)
same,GI50,SK-MEL-2,35.4 µM (inactive)
same,GI50,SK-MEL-5,47.8 µM (inactive)
same,GI50,SK-OV-3,50 µM (inactive)
same,GI50,SN12C,65.5 µM (inactive)
same,GI50,SNB-19,32.7 µM (inactive)
same,GI50,SNB-75,88.3 µM (inactive)
same,GI50,SR,> 10 µM (inactive)
same,GI50,SW-620,30.4 µM (inactive)
same,GI50,T47D,53.1 µM (inactive)
same,GI50,TK-10,47.5 µM (inactive)
same,GI50,U-251,22.1 µM (inactive)
same,GI50,UACC-257,45 µM (inactive)
same,GI50,UACC-62,26.7 µM (inactive)
same,GI50,UO-31,36.3 µM (inactive)
